Experimental findings from patent publication US10633630B2, “Acceleration of Mycobacterium growth” (ST GEORGE'S HOSPITAL MEDICAL SCHOOL, priority 2014, dated 2020) are described below.

The subject of test [1] is Mycobacterium avium subspecies paratuberculosis (MAP). In words: Screen of TiKa peptide supplements for growth effects on MAP cultures (Example 1). The format is cell-based. The following applies: supplemented at 20 mg/ml (final); over a 20 day period; vs identical inocula with no added supplement. How it is done: FX1=reduction in lag phase, FX2=increase in division rate.
The lag phase and division rate can be determined using routine methods in the art. Typically, growth and expansion of cells of a bacterial culture is determined by monitoring the optical density (OD) of the culture (e.g. the OD600 or the OD800 as illustrated in the Examples section below). The lag phase and the division rate can be determined from plots of the OD over time.
Using Mycobacterium avium subspecies paratuberculosis (MAP) as a target organism a bank of 109 short L enantiomer peptides and one D enantiomer peptide (TiKa 14D) were screened for the ability to supplement defined media (see below) to produce growth effects that produce biomass more rapidly than identical inocula of MAP with no added supplement.
The effects can be defined as: • A significant decrease in lag time (i.e the time it takes to recover from subculture and begin growing exponentially). With standard low inoculum this is at least 5 days but there is evidence that this phase can also be greatly extended in low inocula (see FIGS. 3 and 4). • An increase in division rate.

The nature of test [2]: Growth curves at various concentrations of peptide (Example 5). The format is cell-based. The following applies: for doubling time relative to the control / lag phase relative to the control without supplement: above the optimum concentration; for effects on the rate of division: below the optimum concentration; for optimum concentration of supplement: concentrations up to 80 μg/ml tested. How it is done:
Part (A) presents results for the TiKa 14D peptide and part (B) presents results for the TiKa 102 peptide.
TiKa 14D and TiKa 102 were tested to identify the optimum concentration of supplement. Results are presented in FIGS. 5A and B for concentrations up to 80 μg/ml. […] Below the optimum concentration, the lag phase was either not affected (10 μg/ml of TiKa 14D) or was inhibited relative to the control (slightly for TiKa 14D at 5 μg/ml and for TiKa 102 at 20 μg/ml).

Test [3] deals with Mycobacterium avium subspecies paratuberculosis. The format is cell-based. The following applies: TiKa 14D 20 μg/ml.
In test [4] the test system is cultures with different starting OD600 values. Description: Effects of TiKa 14D on cultures with different starting OD600 values (Example 3). In kind it is cell-based. The following applies: 20 μg/ml. How it is done: The effects of TiKa 14D on cultures with different starting OD600 values were tested. The TiKa 14D was present at a concentration of 20 μg/ml.
As shown in this Figure, at a starting OD600 of 0.2 TiKa 14D reduced the time to reach an OD600 of 0.6 by 7 days relative to a control without the supplement. At a starting OD600 of approximately 0.4, TiKa 14D reduced the time to reach an OD600 of 0.6 by 2 days relative to the control without the supplement.

In test [5] the test system is MTB. In words: Time to positivity in BacTAlert liquid media system (Example 4). The format is cell-based.
In test [6] the test system is Mycobacterium tuberculosis.

Non-standard residues stand in square brackets, D forms with d. No end group written: not given here. βAla = NCCC(=O)O

Take RLARIVVIRVAR-BB-K(biotin) [TiKa 103]: in test [1], the “effect on MAP test culture (decrease in lag time, increase in division rate)” value is “positive effects”.
Consider RRWRIVVIRVRR [TiKa 69], for which the “effect on MAP test culture (decrease in lag time, increase in division rate)” value in test [1] is recorded as “positive effects”.
RRWRIVVIRVRR-BB-K(biotin) [TiKa 102]: the “effect on MAP test culture (decrease in lag time, increase in division rate)” value in test [1] is on record as “positive effects”. For the same substance, in test [2], the “doubling time relative to the control” value is “still also reduced”, the “lag phase relative to the control without supplement” value is listed as “still improved”, the “effects on the rate of division” value is reported as “decreased proportionally” and the “optimum concentration of supplement” value worked out at 40 µg/mL. Moreover, the “lag phase relative to the control” value in test [2] (below the optimum concentration: 20 μg/ml) is “inhibited”.
As to “RRWRIVVIRVRR-bA-bA-C (RRWRIVVIRVRR[βAla][βAla]C) [TiKa 86]”, the “effect on MAP test culture (decrease in lag time, increase in division rate)” value in test [1] is “positive effects”.
Consider WKIVFWWRR [TiKa 14D], for which, in test [1], the “effect on MAP test culture (decrease in lag time, increase in division rate)” value is recorded as “positive effects”. Moreover, the “effect on growth curve” value in test [3] and in test [6] was “positive effects” in each case. Moreover, the “reduction of the time to reach an OD600 of 0.6 relative to a control without the supplement” value turned out to be 7 days in test [4] (starting OD600 of 0.2) and 2 days in test [4] (starting OD600 of approximately 0.4). For the same substance, in test [5], the “Time to Positivity (TTP) compared to control media” value is reported as “decreased”. In addition, in test [2], the “doubling time relative to the control” value is reported as “still also reduced”. Also, the “lag phase relative to the control without supplement” value in test [2] is recorded as “still improved”. Moreover, the “effects on the rate of division” value in test [2] is reported as “decreased proportionally”. Besides, the “lag phase relative to the control” value is listed as “inhibited” in test [2] (below the optimum concentration: 5 μg/ml) and “not affected” in test [2] (below the optimum concentration: 10 μg/ml). For the same substance, the “optimum concentration of supplement” value in test [2] amounted to 20 µg/mL.
